Experimental data taken from PubChem BioAssay AID651652 (NMMLSC, 2012).
pEC50: −log10 of the molar value. Calls of active or inactive are those of the source.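 The calls were made as follows: active = viability at the highest tested concentration below 50%; inactive = the rest.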

Assays:
[1] = concentration-response toxicity in K562 empty-vector line, CellTiter-Glo luminescence, ABCB6 inhibitor project counterscreen, PowderSet01 powders (AID 651652); details: K562 vector control viability, CellTiter-Glo, 18 h; at 100 µM (top of the series)
[2] = system: K562 vector control viability, CellTiter-Glo, 18 h; assay: as above

## CC(=O)Nc1ccc(NC(=O)c2nc(S(=O)(=O)Cc3cccc(C)c3)ncc2Cl)cc1
[1]
  viability: 51.9% (inactive)

## CCOc1ccccc1NC(=O)c1nc(S(=O)(=O)Cc2cccc(C)c2)ncc1Cl
[2]
  pEC50: 4.92

## CC(=O)Nc1ccc(NC(=O)c2nc(S(=O)(=O)Cc3ccccc3)ncc2Cl)cc1
[1]
  viability: 58% (inactive)

## CCc1ccc(NC(=O)c2nc(S(=O)(=O)Cc3ccccc3)ncc2Cl)cc1
[2]
  pEC50: 5.35
